Assays:
[1] = xn = mol fraction of the nth substance listed; conditions: Ring tensiometer
[2] = refractive index (Na D-line) (dimensionless); xn = mol fraction of the nth substance listed; conditions: 101 kPa, Liquid, Standard Abbe refractometry

CC(N)CN (stereo not given) [1,2-propanediamine] + O
Conditions	refractive index, 283.15 K	refractive index, 293.15 K	refractive index, 303.15 K	refractive index, 313.15 K	refractive index, 323.15 K	surface tension liquid-gas, 283.15 K [mN/m]	surface tension liquid-gas, 293.15 K [mN/m]	surface tension liquid-gas, 303.15 K [mN/m]	surface tension liquid-gas, 313.15 K [mN/m]	surface tension liquid-gas, 323.15 K [mN/m]
[1], x1 = 0.01	–	–	–	–	–	67.4	66.1	64.7	62.8	61
[1], x1 = 0.03	–	–	–	–	–	62.1	60.5	58.7	57.3	56
[1], x1 = 0.05	–	–	–	–	–	58.1	56.4	55	53.7	52.2
[1], x1 = 0.07	–	–	–	–	–	55	53.5	51.9	50.5	49.1
[1], x1 = 0.1	–	–	–	–	–	51.7	50.5	48.9	47.3	45.8
[1], x1 = 0.2	–	–	–	–	–	47.6	46.4	45	43.2	41.9
[1], x1 = 0.3	–	–	–	–	–	44.8	43.7	42.4	41	39.7
[1], x1 = 0.4	–	–	–	–	–	42.5	41.1	40.1	38.6	37.4
[1], x1 = 0.5	–	–	–	–	–	40.6	39.2	37.9	36.6	35.5
[1], x1 = 0.6	–	–	–	–	–	38.3	37.2	36.1	35.1	33.9
[1], x1 = 0.7	–	–	–	–	–	37.5	36.4	35.2	34.1	32.9
[1], x1 = 0.8	–	–	–	–	–	36.2	35.1	33.9	32.7	31.7
[1], x1 = 0.9	–	–	–	–	–	35.4	34.2	33	31.9	30.7
[1], x1 = 1	–	–	–	–	–	35	33.8	32.7	31.4	30.3
[2], x1 = 0.01	1.34	1.3392	1.3381	1.3366	1.3352	–	–	–	–	–
[2], x1 = 0.03	1.3522	1.3512	1.3499	1.3488	1.3478	–	–	–	–	–
[2], x1 = 0.05	1.3635	1.3621	1.3604	1.3592	1.3579	–	–	–	–	–
[2], x1 = 0.07	1.374	1.3723	1.3703	1.3685	1.3667	–	–	–	–	–
[2], x1 = 0.1	1.3882	1.3859	1.3835	1.3816	1.3797	–	–	–	–	–
[2], x1 = 0.2	1.4209	1.4173	1.4137	1.4111	1.4085	–	–	–	–	–
[2], x1 = 0.3	1.4356	1.4317	1.4273	1.4236	1.4208	–	–	–	–	–
[2], x1 = 0.4	1.4448	1.4405	1.4363	1.4321	1.4279	–	–	–	–	–
[2], x1 = 0.5	1.4486	1.4443	1.4401	1.4356	1.4311	–	–	–	–	–
[2], x1 = 0.6	1.4504	1.4459	1.4415	1.4369	1.4323	–	–	–	–	–
[2], x1 = 0.7	1.4511	1.4466	1.4418	1.4374	1.4325	–	–	–	–	–
[2], x1 = 0.8	1.4515	1.4468	1.442	1.4371	1.4323	–	–	–	–	–
[2], x1 = 0.9	1.4512	1.4465	1.4415	1.4368	1.4319	–	–	–	–	–
[2], x1 = 1	1.451	1.4458	1.4409	1.4362	1.4314	–	–	–	–	–
